Key:
serum IL-4 and IFN-γ = test: Serum IL-4 and IFN-γ by ELISA after i.p. glycolipid injection into naïve B6 mice; format: in vivo, mouse; settings: compared to OCH
Protocol: FIG. 10: Effect of glycolipid agonists on cytokine expression in naïve B6 mice, and on iNKT cells in septic B6 mice. (a) Naïve B6 mice were injected i.p. with 4 μg OCH or KRN7000 or C20:2, and bled at 2, 12, and 24 hours post-injection. Serum samples were assayed for IL-4 and IFN-γ by enzyme-linked immunosorbent assay (ELISA). […] Vehicle-treated mice had cytokine levels below limits of detection. (b) B6 mice were given an intraperitoneal injection of fecal slurry (500 μL of a 90 mg/mL solution) to induce IAS and concomitantly treated with 4 μg of vehicle, OCH, or KRN7000. After 24 hours, mice were sacrificed, and cell suspensions from the liver and spleen were stained for the flow cytometric detection of CD1d tetramer+ TCRβ+iNKT cells.
(§1) Lyophilized OCH was generously provided by the National Institutes of Health (NIH) Tetramer Core Facility (Emory University, Atlanta, Ga.). Each vial containing 0.2 mg of OCH was solubilized in a vehicle solution containing 1 mL of sterile distilled water, 0.5% Tween 20, 56 mg of sucrose and 7.5 mg of histidine, and stored as aliquots at 4° C. until use. KRN7000 (α-GalCer, C26:0/C18:0) was purchased from Funakoshi Co. Ltd. (Tokyo, Japan), solubilized at 1 mg/ml in dimethylsulphoxide (DMSO), and stored as aliquots at −20° C. until use (29); the control vehicle was 2% DMSO in phosphate-buffered saline (PBS). C20:2 was synthesized and used as previously published (30, 31). For in vivo experiments, mice were injected intraperitoneally (i.p.) with a single dose of glycolipid (4 μg/dose) (30) within twenty minutes after induction of IAS.
Cytokine concentrations were determined by commercially available specific ELISA assays for IL-4 and IFN-γ (Ready-Set-Go kits, eBioscience). ODs were measured on a Benchmark Microplate Reader (Bio-Rad) at a wavelength of 450 nm for both cytokines.

[1] = test system: B6 mice with intra-abdominal sepsis (IAS); test: Murine intra-abdominal sepsis (IAS) model: survival and murine sepsis score (MSS); format: in vivo, mouse; settings: septic B6 mice
Protocol: Stool from the cecum of euthanized naïve B6 mice was expressed through an enterotomy, homogenized, and suspended in 0.9% normal saline (NS) to produce a fecal slurry at a final concentration of 90 mg/mL, for use in experiments on the same day. Mice were injected intraperitoneally with 500 μL fecal slurry or 0.9% normal saline (sham group). The mice were monitored and scored by two independent investigators—one of whom was blinded to the treatment—every 2-3 hours for the first 12 hours, and then every 1-2 hours thereafter. A murine sepsis score (MSS) was assigned to each mouse based on activity, eye movement, response to exogenous stimuli, breathing rate and pattern, and degree of piloerection (Shrum et al. BMC Research Notes 2014, 7:233). The MSS is a reliable and robust scoring system that has excellent inter-rater reliability (intra-class coefficient=0.96), high internal consistency (Cronbach α=0.92), and correlates with levels of certain pro-inflammatory cytokines such as IFN-γ and IL-1β during the experimental timeline (Shrum et al. BMC Research Notes 2014, 7:233). Mice were euthanized at 24 hours, or earlier if they were deemed to be in significant distress based on our scoring model. Euthanasia was carried out as described above. At the time of sacrifice, intra-cardiac blood was drawn into 1.5 mL micro-centrifuge tubes (BD Biosciences) and centrifuged for serum at 1000×g for 30 minutes at 4° C.
as §1

splenocyte apoptosis = test: Histology (H&E) and TUNEL staining of spleen, liver and omentum of septic B6 mice; format: in vivo, mouse; settings: 24 hours
From the text: FIG. 6: Histopathology of septic B6 mice treated with glycolipid agonists of iNKT cells. […] Lymphocyte migration to the omentum is also ameliorated in OCH-treated mice compared to vehicle- and KRN7000-treated mice. There were no histopathological differences in the liver. Images are representative of 4 animals per treatment group (size bar, 50 μm). (b) Histopathological scoring of the degree of apoptosis observed within the spleens of sham and septic B6 mice treated with vehicle, KRN7000, or OCH (n=4 animals per treatment group). Apoptosis was defined histologically by the presence of cell clusters with nuclear shrinkage (karyorrhexis), dark eosinophilic cytoplasm, intact plasma membrane, and relative paucity of surrounding inflammatory cells within the splenic follicles on H&E staining. Scores assigned to each animal by a blinded independent pathologist were as follows: 0 for complete absence of apoptosis; 1 for mild presence of apoptosis (0-15% per follicle); 2 for moderate apoptosis (16-30% per follicle); and 3 for severe apoptosis (31-45% per follicle). ***p<0.0001 by two-tailed Mann Whitney U test.
Liver, spleen, and omentum from sham B6 mice, and vehicle-, OCH-, and KRN7000-treated septic B6 mice were fixed in 10% neutral buffered formalin, embedded in paraffin, sectioned, and stained with H&E or subjected to TUNEL staining using a commercially available kit (Calbiochem). At least four stained sections per spleen from four animals per treatment group were examined and scored for apoptosis by a board-certified veterinary pathologist (Welch) who was blinded to the study design. Apoptosis was defined histologically by the presence of cell clusters with nuclear shrinkage (karyorrhexis), dark eosinophilic cytoplasm, intact plasma membrane, and relative paucity of surrounding inflammatory cells within the splenic follicles on H&E staining (34). Scores assigned to each animal were as follows: 0 for complete absence of apoptosis; 1 for mild presence of apoptosis (0-15% per follicle); 2 for moderate apoptosis (16-30% per follicle); and 3 for severe apoptosis (31-45% per follicle). Photomicrographs were taken using a Nikon DS-Fi1 digital camera using NIS-elements software.

invariant TCR = settings: C20:2 compared to OCH; cited from earlier work
[2] = C20:2 compared to OCH; cited from earlier work

Q: What does the source list for `CCCCC/C=C\C/C=C\CCCCCCCCCC(=O)N[C@@H](CO[C@H]1O[C@H](CO)[C@H](O)[C@H](O)[C@H]1O)[C@H](O)[C@H](O)CCCCCCCCCCCCCC` [C20:2]?
A: Th2 response at 24 hours (serum IL-4 and IFN-γ): more pronounced; respiratory status ([1]; observed up to 24 hours): improved respiratory status; course of MSS over time ([1]; up to 24 hours): continued to rise; MSS between 20 and 24 hours ([1]; compared to vehicle-treated mice): significant reduction; apoptosis in histology compared to KRN7000-treated mice (splenocyte apoptosis): decrease; degree of apoptosis compared to OCH-treated mice (splenocyte apoptosis): higher; capacity to bind and activate iNKT cells (invariant TCR): significantly stronger; half-life [2]: relatively short

Source: patent US20170027973A1, “MODULARION OF INVARIANT NATURAL KILLER T CELLS IN THE TREATMENT OF SEPSIS” (LONDON HEALTH SCIENCES CENTRE RESEARCH INC., priority 2014, published 2017)
